# Data taken from patent publication US20260132165A1, “MODIFIED NUCLEOSIDE ANALOGUE AND USE THEREOF, AND NUCLEOSIDE ANALOGUE-CONTAINING DOUBLE-STRANDED OLIGONUCLEOTIDE AND USE THEREOF” (RIGERNA THERAPEUTICS (BEIJING) CO., LTD., priority 2023, published 2026).
# Strand notation (5' to 3'): a small letter for the sugar, then the base; units joined by * are phosphorothioate-linked, units joined directly phosphodiester-linked; [ ] holds rarer units or linkages, { } end groups; capitals alone tell only the bases. [Uhd] = commercial lipid-conjugated uridine analogue Uhd (C16), from Hongene, reference; {VP} = (thio)vinylphosphonate on the antisense 5' nucleotide, as listed; e = 2'-O-(2-methoxyethyl) (MOE); m = 2'-O-methyl; f = 2'-fluoro
# Tests used:
# [1] = test system: target gene SOD1; assay: Test Example 7: inhibitory activity of lipid conjugated siRNA sequences on SOD1 in mouse adipose and muscle tissues (tail vein injection); type: in vivo, C57BL/6j mice; conditions: tail vein injection 5 mg/kg
# Procedure: (§1) RNA extraction: the above tissue samples were taken out from the RNAlater, and smashed for 60 s in Tissuelyser type II full-automatic tissue homogenizer, and total RNAs of various tissue samples were extracted using the full-automatic nucleic acid extraction instrument and the nucleic acid extraction kit from Zhejiang Hanwei Science and Technology Co. Ltd. according to methods described in instructions.
# (§2) Reverse transcription reaction: 1 μg of the extracted total RNAs of the tissue samples were taken, and configured into 20 μL of reverse transcription system according to a method described in kit instructions by using a reverse transcription kit (Reverse Transcription System, A3500) from Promega Corporation and selecting Oligo (dT)15 reverse transcription primers, and the reverse transcription reaction was completed. After the reaction was ended, 80 μL of RNase-Free water was added into the reverse transcription system to provide cDNA solution for Real-time PCR detection.
# (§3) Real-time PCR detection: 20 μL of Real-time PCR reaction system per PCR detection well was configured according to a method described in kit instructions using SYBR™ Select Master Mix (Catalog number: 4472908) reagent from ABI company. Each detection system contained 5 μL of cDNA template obtained from the above reverse transcription reaction, 10 μL of SYBR™ Select Master Mix, 0.5 μL of 10 μM upstream primers, 0.5 μL of 10 μM downstream primers, and 4 μL of RNase-Free H2O. The configured reaction system was subjected to Real-time PCR amplification on ABI StepOnePlus PCR instrument by a three-step method, wherein an amplification procedure was pre-denaturation at 95° C. for 10 min, then denaturation at 95° C. for 30 s, annealing at 60° C. for 30 s, and extension at 72° C. for 30 s; and processes of denaturation, annealing, and extension were repeated for 40 cycles. Gene expression differences were calculated by the ΔΔCt method after completion of the procedure.
# (§4) In the real-time fluorescence quantitative PCR method, relative quantitative calculation of remaining expression level and inhibition rate of gene mRNA of interest in various test groups was performed by the ΔΔCt method, and the calculation method is as follows:
# The present test example evaluated, by an evaluation method for inhibitory activity on a target gene in mice, the inhibitory activity of siRNA sequence RZ899090 with the sense strand with the NM073 conjugation at Position 4, siRNA sequence RZ899091 with the sense strand with the NM074 conjugation at Position 4, siRNA sequence RZ899078 with the sense strand with the NM202 conjugation at Position 6 and siRNA reference sequence RZ899093 with the sense strand with the Uhd conjugation at Position 4, and siRNA reference sequence RZ899076 with the sense strand with the NM200 conjugation at Position 4 on the target gene SOD1 of interest in mice. The above conjugation vectors were different in that NM073 was C18 aliphatic chain, NM074 was C20 aliphatic chain, and NM0202 and NM0200 were C22 aliphatic chains.
# (§5) 6-8 Week-old C57BL/6j mice were randomly grouped by body weight, 15 per group, 6 groups in total. Mice in each group were dosed with the above siRNA conjugates by tail vein injection, with an administration dose of 5 mg/kg per mouse, and an administration volume of 150 μL. PBS control group was administered with the same volume of siRNA conjugate-free PBS solution. The day of administration was recorded as D0, and 5 mice in each group were sacrificed on D14, D28 and D49 after administration. Tissues such as paragonadal fat, left hind leg quadriceps muscle, heart, liver, and kidney were respectively taken and stored in the RNAlater. RNA extraction, reverse transcription, and real-time fluorescence quantitative detection were performed on various tissues according to the above method, and gene expression differences were calculated by the above ΔΔCt method.
# [2] = test system: target gene SOD1; assay: Test Example 9: inhibitory activity of lipid conjugated siRNA sequences on SOD1 in mouse muscle tissues; type: in vivo, C57BL/6j mice; conditions: tail vein injection 5 mg/kg, D14
# Procedure: as §1, §2, §3, §4
# The present test example evaluated, by an evaluation method for inhibitory activity on a target gene in mice, the inhibitory activity of siRNA sequence RZ899090 with the sense strand with the NM073 conjugation at Position 4, siRNA sequence RZ899091 with the sense strand with the NM074 conjugation at Position 4, siRNA sequence RZ899078 with the sense strand with the NM202 conjugation at Position 6 and siRNA reference sequence RZ899093 with the sense strand with the Uhd conjugation at Position 4, siRNA reference sequence RZ899076 with the sense strand with the NM200 conjugation at Position 4 on the target gene SOD1 of interest in muscle tissues in different parts of mice.
# as §5, with “weight, 5” for “weight, 15”, “on D14” for “on D14, D28 and D49”, “as” for “as paragonadal fat,”, “muscle, diaphragm,” for “muscle, heart, liver,”, “and heart tissues” for “and kidney”
substance,measurement,setting,value
RZ899093: siRNA reference sequence with the sense strand with the Uhd (C16) conjugation at Position 4; SEQ ID NO: 13 / 23 (sense mU*mU*mU[Uhd]mAmAfUfCfCfUmCmAmCmUmCmUmAmAmA; antisense {VP}-mU*fU*mUmAmGfAmGmUmGmAmGfGmAfUeUfAmAmAmA*mU*mG) [reference compound],D 14 % Mean value of inhibition rate,"[1]; mouse adipose tissues (paragonadal fat), D14",88.95%
same,D 28 % Mean value of inhibition rate,"[1]; mouse adipose tissues (paragonadal fat), D28",81.22%
same,D 49 % Mean value of inhibition rate,"[1]; mouse adipose tissues (paragonadal fat), D49",81.75%
same,D 14 % Mean value of inhibition rate,"[1]; mouse heart tissues, D14",57.83%
same,D 28 % Mean value of inhibition rate,"[1]; mouse heart tissues, D28",60.42%
same,D 49 % Mean value of inhibition rate,"[1]; mouse heart tissues, D49",44.18%
same,Kidney D 14 % Mean value of inhibition rate,"[1]; mouse kidney, D14",42.87%
same,Kidney D 28 % Mean value of inhibition rate,"[1]; mouse kidney, D28",19.28%
same,Kidney D 49 % Mean value of inhibition rate,"[1]; mouse kidney, D49",18.90%
same,Liver D 14 % Mean value of inhibition rate,"[1]; mouse liver, D14",48.04%
same,Liver D 28 % Mean value of inhibition rate,"[1]; mouse liver, D28",13.41%
same,Liver D 49 % Mean value of inhibition rate,"[1]; mouse liver, D49",13.02%
same,D 14 % Mean value of inhibition rate,"[1]; mouse skeletal muscle tissues (left hind leg quadriceps muscle), D14",68.42%
same,D 28 % Mean value of inhibition rate,"[1]; mouse skeletal muscle tissues (left hind leg quadriceps muscle), D28",64.12%
same,D 49 % Mean value of inhibition rate,"[1]; mouse skeletal muscle tissues (left hind leg quadriceps muscle), D49",44.88%
same,Diaphragm % Mean value of inhibition rate,[2]; diaphragm,64.76%
same,Heart % Mean value of inhibition rate,[2]; heart,51.52%
same,Left quadriceps muscle % Mean value of inhibition rate,[2]; left hind leg quadriceps muscle,56.55%
